# Test results taken from patent US9765070B2, “Substituted oxopyridine derivatives” (Bayer Pharma Aktiengesellschaft, priority 2013, dated 2017).
# Target: human plasma kallikrein (Homo sapiens (Human), UniProt P03952)
# Experiment: Determination of the plasma kallikrein activity (fluorogenic substrate H-Pro-Phe-Arg-AMC)
# Type: biochemical
# Conditions: plasma kallikrein from Kordia 0.6 nM, 15 min preincubation, 30 min at 22° C., fluorescence
# Protocol: a.5) Determination of the Plasma Kallikrein Activity
# To determine the plasma kallikrein inhibition of the substances according to the invention, a biochemical test system is used which utilizes the reaction of a peptidic plasma kallikrein substrate to determine the enzymatic activity of human plasma kallikrein. Here, plasma kallikrein cleaves from the peptic plasma kallikrein substrate the C-terminal aminomethylcoumarin (AMC), the fluorescence of which is measured. The determinations are carried out in microtitre plates.
# In each case 1 μl of the diluted substance solutions is placed into the wells of white microtitre plates from Greiner (384 wells). 20 μl of assay buffer (50 mM Tris/HCl pH 7.4; 100 mM sodium chloride solution; 5 mM of calcium chloride solution; 0.1% of bovine serum albumin) and 20 μl of plasma kallikrein from Kordia (0.6 nM in assay buffer) are then added successively. After 15 min of incubation, the enzyme reaction is started by addition of 20 μl of the substrate H-Pro-Phe-Arg-AMC dissolved in assay buffer (10 μM in assay buffer) from Bachem, the mixture is incubated at room temperature (22° C.) for 30 min and fluorescence is then measured (excitation: 360 nm, emission: 460 nm). The measured emissions of the test batches with test substance are compared to those of control batches without test substance (only dimethyl sulphoxide instead of test substance in dimethyl sulphoxide), and IC50 values are calculated from the concentration/activity relationships.
# human plasma kallikrein, sequence (P03952 391-638): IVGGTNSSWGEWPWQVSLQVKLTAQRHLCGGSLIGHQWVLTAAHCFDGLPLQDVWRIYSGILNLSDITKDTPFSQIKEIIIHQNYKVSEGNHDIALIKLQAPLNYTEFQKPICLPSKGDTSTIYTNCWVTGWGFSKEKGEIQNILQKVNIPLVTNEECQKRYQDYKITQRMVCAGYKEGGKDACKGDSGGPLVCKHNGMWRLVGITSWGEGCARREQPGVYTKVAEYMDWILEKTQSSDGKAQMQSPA
# human plasma kallikrein, sequence (P03952 20-390 partner): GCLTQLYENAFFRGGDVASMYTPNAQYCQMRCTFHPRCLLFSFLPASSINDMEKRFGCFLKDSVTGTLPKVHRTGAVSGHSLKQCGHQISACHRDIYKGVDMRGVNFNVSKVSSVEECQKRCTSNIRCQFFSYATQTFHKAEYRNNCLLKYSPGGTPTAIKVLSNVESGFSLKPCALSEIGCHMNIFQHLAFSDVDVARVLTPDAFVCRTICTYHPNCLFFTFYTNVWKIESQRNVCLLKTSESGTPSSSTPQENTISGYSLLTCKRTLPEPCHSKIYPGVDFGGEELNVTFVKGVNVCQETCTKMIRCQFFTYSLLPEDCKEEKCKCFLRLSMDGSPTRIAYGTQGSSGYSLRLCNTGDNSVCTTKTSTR
row,IC50,SMILES
1,4.8 nM,"COc1cn(C(C[C@@H]2CCCCO2)C(=O)Nc2ccc3nc(C(=O)O)cn3c2)c(=O)cc1-c1cc(Cl)ccc1C#N (mixture of isomers) [Example 9, 6-({2-[4-(5-Chloro-2-cyanophenyl)-5-methoxy-2-oxopyridin-1(2H)-yl]-3-[(2S)-tetrahydro-2H-pyran-2-yl]propanoyl}amino)imidazo[1,2-a]pyridine-2-carboxylic acid (mixture of enantiomerically pure diastereomers)]"
2,16 nM,"CCC(C(=O)Nc1ccc2nc(C(=O)O)cn2c1)n1cc(OC)c(-c2cc(Cl)ccc2C#N)cc1=O (racemic) [Example 2, 6-({2-[4-(5-Chloro-2-cyanophenyl)-5-methoxy-2-oxopyridin-1(2H)-yl]butanoyl}amino)imidazo[1,2-a]pyridine-2-carboxylic acid (racemate)]"
3,13 nM,"CCC(C(=O)Nc1ccn2cc(C(=O)O)nc2c1)n1cc(OC)c(-c2cc(Cl)ccc2C#N)cc1=O (racemic) [Example 3, 7-({2-[4-(5-Chloro-2-cyanophenyl)-5-methoxy-2-oxopyridin-1(2H)-yl]butanoyl}amino)imidazo[1,2-a]pyridine-2-carboxylic acid (racemate)]"
4,44 nM,"CCC(C(=O)Nc1ccc2nccn2c1)n1cc(OC)c(-c2cc(Cl)ccc2C#N)cc1=O (racemic) [Example 4, 2-[4-(5-Chloro-2-cyanophenyl)-5-methoxy-2-oxopyridin-1(2H)-yl]-N-(imidazo[1,2-a]pyridin-6-yl)butanamide (racemate)]"
5,7 nM,"CCOC(=O)c1cnc2ccc(NC(=O)C(CCOC)n3cc(OC)c(-c4cc(Cl)ccc4C#N)cc3=O)cn12 (racemic) [Example 10, Ethyl 6-({2-[4-(5-chloro-2-cyanophenyl)-5-methoxy-2-oxopyridin-1(2H)-yl]-4-methoxybutanoyl}amino)imidazo[1,2-a]pyridine-3-carboxylate (racemate)]"
6,5 nM,"CCOC(=O)c1cn2ccc(NC(=O)C(CCOC)n3cc(OC)c(-c4cc(Cl)ccc4C#N)cc3=O)cc2n1 (racemic) [Example 11, Ethyl 7-({2-[4-(5-chloro-2-cyanophenyl)-5-methoxy-2-oxopyridin-1(2H)-yl]-4-methoxybutanoyl}amino)imidazo[1,2-a]pyridine-2-carboxylate (racemate)]"
7,4.9 nM,"COCCC(C(=O)Nc1ccn2cc(C(N)=O)nc2c1)n1cc(OC)c(-c2cc(Cl)ccc2C#N)cc1=O (racemic) [Example 12, 7-({2-[4-(5-Chloro-2-cyanophenyl)-5-methoxy-2-oxopyridin-1(2H)-yl]-4-methoxybutanoyl}amino)imidazo[1,2-a]pyridine-2-carboxamide (racemate)]"
8,13 nM,"COCCC(C(=O)Nc1ccc2nccn2c1)n1cc(OC)c(-c2cc(Cl)ccc2C#N)cc1=O (racemic) [Example 13, 2-[4-(5-Chloro-2-cyanophenyl)-5-methoxy-2-oxopyridin-1(2H)-yl]-N-(imidazo[1,2-a]pyridin-6-yl)-4-methoxybutanamide (racemate)]"
9,65 nM,"COCCC(C(=O)Nc1ccc2nccn2c1)n1cc(Cl)c(-c2cc(Cl)ccc2C#N)cc1=O (racemic) [Example 14, 2-[5-Chloro-4-(5-chloro-2-cyanophenyl)-2-oxopyridin-1(2H)-yl]-N-(imidazo[1,2-a]pyridin-6-yl)-4-methoxybutanamide (racemate)]"
10,31 nM,"COc1cn(C(CC2CCC2)C(=O)Nc2ccc3nccn3c2)c(=O)cc1-c1cc(Cl)ccc1C#N (racemic) [Example 15, 2-[4-(5-Chloro-2-cyanophenyl)-5-methoxy-2-oxopyridin-1(2H)-yl]-3-cyclobutyl-N-(imidazo[1,2-a]pyridin-6-yl)propanamide (racemate)]"
11,24 nM,"CCC(C(=O)Nc1ccc2ncc(Cl)n2c1)n1cc(OC)c(-c2cc(Cl)ccc2C#N)cc1=O (racemic) [Example 17, 2-[4-(5-Chloro-2-cyanophenyl)-5-methoxy-2-oxopyridin-1(2H)-yl]-N-(3-chloroimidazo[1,2-a]pyridin-6-yl)butanamide (racemate)]"
12,130 nM,"CCC(C(=O)Nc1ccc2nc(-c3ccc(F)cc3)cn2c1)n1cc(OC)c(-c2cc(Cl)ccc2C#N)cc1=O (racemic) [Example 18, 2-[4-(5-Chloro-2-cyanophenyl)-5-methoxy-2-oxopyridin-1(2H)-yl]-N-[2-(4-fluorophenyl)-imidazo[1,2-a]pyridin-6-yl]butanamide (racemate)]"
13,25 nM,"COCCC(C(=O)Nc1ccc2nc(-c3ccc(F)cc3)cn2c1)n1cc(OC)c(-c2cc(Cl)ccc2C#N)cc1=O (racemic) [Example 19, 2-[4-(5-Chloro-2-cyanophenyl)-5-methoxy-2-oxopyridin-1(2H)-yl]-N-[2-(4-fluorophenyl)-imidazo[1,2-a]pyridin-6-yl]-4-methoxybutanamide (racemate)]"
14,23 nM,"CCC(C(=O)Nc1ccc2nncn2c1)n1cc(OC)c(-c2cc(Cl)ccc2C#N)cc1=O (racemic) [Example 20, 2-[4-(5-Chloro-2-cyanophenyl)-5-methoxy-2-oxopyridin-1(2H)-yl]-N-([1,2,4]triazolo[4,3-a]pyridin-6-yl)butanamide (racemate)]"
15,8.3 nM,"COCCC(C(=O)Nc1ccc2nnc(C)n2c1)n1cc(OC)c(-c2cc(Cl)ccc2C#N)cc1=O (racemic) [Example 22, 2-[4-(5-Chloro-2-cyanophenyl)-5-methoxy-2-oxopyridin-1(2H)-yl]-4-methoxy-N-(3-methyl[1,2,4]triazolo[4,3-a]pyridin-6-yl)butanamide (racemate)]"
16,13 nM,"CCc1nnc2ccc(NC(=O)C(CCOC)n3cc(OC)c(-c4cc(Cl)ccc4C#N)cc3=O)cn12 (racemic) [Example 23, 2-[4-(5-Chloro-2-cyanophenyl)-5-methoxy-2-oxopyridin-1(2H)-yl]-4-methoxy-N-(3-ethyl[1,2,4]triazolo[4,3-a]pyridin-6-yl)butanamide (racemate)]"
17,16 nM,"CCCCc1nnc2ccc(NC(=O)C(CCOC)n3cc(OC)c(-c4cc(Cl)ccc4C#N)cc3=O)cn12 (racemic) [Example 24, N-(3-Butyl[1,2,4]triazolo[4,3-a]pyridin-6-yl)-2-[4-(5-chloro-2-cyanophenyl)-5-methoxy-2-oxopyridin-1(2H)-yl]-4-methoxybutanamide (racemate)]"
18,23 nM,"COCCC(C(=O)Nc1ccc2nnc(CN(C)C)n2c1)n1cc(OC)c(-c2cc(Cl)ccc2C#N)cc1=O (racemic) [Example 25, 2-[4-(5-Chloro-2-cyanophenyl)-5-methoxy-2-oxopyridin-1(2H)-yl]-N-{3-[(dimethylamino)-methyl][1,2,4]triazolo[4,3-a]pyridin-6-yl}-4-methoxybutanamide (racemate)]"
19,50 nM,"COCCC(C(=O)Nc1ccc2cncn2c1)n1cc(Cl)c(-c2cc(Cl)ccc2C#N)cc1=O (racemic) [Example 27, 2-[5-Chloro-4-(5-chloro-2-cyanophenyl)-2-oxopyridin-1(2H)-yl]-N-(imidazo[1,5-a]pyridin-6-yl)-4-methoxybutanamide (racemate)]"
20,8.8 nM,"COc1cn(C(Cc2ccccn2)C(=O)Nc2ccc3nccn3c2)c(=O)cc1-c1cc(Cl)ccc1C#N (racemic) [Example 28, 2-[4-(5-Chloro-2-cyanophenyl)-5-methoxy-2-oxopyridin-1(2H)-yl]-N-(imidazo[1,2-a]pyridin-6-yl)-3-(pyridin-2-yl)propanamide (racemate)]"
